Assay results as given in PubChem BioAssay (NCI).
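A five-concentration, 48-hour dose response in 96-well plates underlies each endpoint, interpolated linearly between surrounding concentrations. GI50 marks 50% less growth. TGI marks complete inhibition of growth.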

What was measured:
Assay in all cases: DTP human tumour cell line panel, 48 h
A498 renal = test system: A498 renal
SR leukemia = test system: SR leukemia
M14 melanoma = test system: M14 melanoma
K-562 leukemia = test system: K-562 leukemia
OVCAR-4 ovarian = test system: OVCAR-4 ovarian
UO-31 renal = test system: UO-31 renal
RPMI-8226 leukemia = test system: RPMI-8226 leukemia
SNB-75 CNS = test system: SNB-75 CNS
EKVX NSCLC = test system: EKVX NSCLC
DU-145 prostate = test system: DU-145 prostate

SMILES | GI50 (A498 renal) | TGI (A498 renal) | GI50 (SR leukemia) | TGI (SR leukemia) | GI50 (M14 melanoma) | TGI (M14 melanoma) | GI50 (K-562 leukemia) | TGI (K-562 leukemia) | GI50 (OVCAR-4 ovarian) | TGI (OVCAR-4 ovarian) | GI50 (UO-31 renal) | TGI (UO-31 renal) | GI50 (RPMI-8226 leukemia) | TGI (RPMI-8226 leukemia) | GI50 (SNB-75 CNS) | TGI (SNB-75 CNS) | GI50 (EKVX NSCLC) | TGI (EKVX NSCLC) | GI50 (DU-145 prostate) | TGI (DU-145 prostate)
C=C1C(=O)O[C@H]2[C@H]1CC/C(CNC(=O)/C=C/c1ccccc1)=C\CC[C@@]1(C)O[C@@H]21 | 1.96 µM | 4 µM | 0.38 µM | 4.97 µM | 1.15 µM | 3.23 µM | 0.551 µM | 7.09 µM | 1.51 µM | 4.14 µM | 1.21 µM | 2.56 µM | 0.71 µM | 3.9 µM | 1.67 µM | 4.74 µM | 1.65 µM | 4.51 µM | 0.603 µM | 1.88 µM
Cc1c2ccncc2c(C)c2c1c1cc(CO)ccc1n2C | 0.02 µM | 0.0531 µM | 0.268 µM | 2.65 µM | 0.687 µM | 3.27 µM | 0.473 µM | 5.82 µM | 0.285 µM | 1.82 µM | 0.304 µM | 3.96 µM | 0.425 µM | 2.28 µM | 1.07 µM | 2.7 µM | 0.719 µM | 5.98 µM | 0.653 µM | 6.02 µM
O=[N+]([O-])c1ccc2c(Nc3ccccc3-c3ccccc3Nc3c4ccccc4nc4cc([N+](=O)[O-])ccc34)c3ccccc3nc2c1 |  | 52.3 µM |  | 15.4 µM |  | 18.4 µM |  | 15.5 µM |  | 57.2 µM |  | 28.8 µM |  | > 39.9 µM |  | 34.5 µM |  | 43 µM |  | 35.2 µM
CCN(CC)C(=O)COc1cc2c(O)c3c(O)c(C)c4c(c13)C(=O)C(C)(OC=CC(OC)C(C)C(OC(C)=O)C(C)C(O)C(C)C(O)C(C)C=CC=C(C)C(=O)N2)O4 (centres undefined) |  | > 100 µM |  | > 100 µM |  | > 100 µM |  | > 100 µM |  | > 100 µM |  | > 100 µM |  | > 100 µM |  | > 100 µM |  | > 100 µM |  | > 100 µM
C=CCCCOC1[C@H](OCc2ccccc2)C(OCc2ccccc2)C(OC)O[C@@H]1CNC(=O)c1cccc(I)c1 (some centres undefined) | 7.2 µM | 72.8 µM | 2.9 µM | 14.6 µM | 60.2 µM | > 100 µM | 2.7 µM | > 100 µM | 14.4 µM | > 100 µM | 9.51 µM | > 100 µM | 2.57 µM | 9.19 µM | 3.91 µM | 56.5 µM | 3.2 µM | > 100 µM | 8.52 µM | > 100 µM
COc1ccc2c(c1)/C(=C\c1c[nH]c3ccc(OC)cc13)C(=O)N2 | 1.82 µM | 6.47 µM | 2.39 µM | 7.9 µM | 1.91 µM | 6.14 µM | 2.21 µM | 15.5 µM | 3.5 µM | 22.8 µM | 2.53 µM | 11.9 µM | 2.39 µM | 8.89 µM | 1.94 µM | 9.22 µM | 3.01 µM | 15.4 µM | 4.72 µM | 16.4 µM
O=C(NN1C(=O)CSC1c1ccc(F)cc1)C(O)c1ccccc1 (centres undefined) | > 100 µM | > 100 µM | 60.8 µM | > 100 µM | > 100 µM | > 100 µM | 43.3 µM | > 100 µM | > 100 µM | > 100 µM | > 100 µM | > 100 µM | 44.4 µM | > 100 µM | 33.4 µM | > 100 µM | > 100 µM | > 100 µM | > 100 µM | > 100 µM
CC(=O)O.CC(=O)O.CC(=O)O.CC(=O)O.[Rh].[Rh] | 18.8 µM | 37.2 µM | 21.1 µM | 40.2 µM | 27.8 µM | 82.5 µM | 18.5 µM | 56.2 µM | 37 µM | > 100 µM | 20.6 µM | 59 µM | 19.4 µM | 50.8 µM | 30.5 µM | > 100 µM | 20.7 µM | 44.1 µM | 47.9 µM | > 100 µM
O=c1c(O)cccn1CCCN(CCCn1cccc(O)c1=O)CCn1cccc(O)c1=O | 22.9 µM | > 100 µM | 0.522 µM | > 100 µM | 5.41 µM | 60.2 µM | 3.97 µM | > 100 µM | 3.95 µM | > 100 µM | 7.6 µM | > 100 µM | 1.99 µM | > 100 µM | 6.1 µM | 88.2 µM | 2.79 µM | > 100 µM | 20.1 µM | > 100 µM
NS(=O)(=O)c1cccc(-c2ccc3c(NC(=O)C4CC4)n[nH]c3c2)c1 | > 19.8 µM | > 25 µM | 3.59 µM | > 25 µM | 12.3 µM | > 25 µM | 8.38 µM | > 25 µM | 16.7 µM | > 25 µM | > 25 µM | > 25 µM | > 25 µM | > 25 µM | > 13.8 µM | > 25 µM | > 25 µM | > 25 µM | 14.7 µM | > 25 µM
NC(=O)c1cccc(-c2cc(C(N)=O)ccc2Cl)c1 | 3.03 µM | 15.3 µM | 0.389 µM | 18.3 µM |  |  | 0.36 µM | > 100 µM | 9.21 µM | > 100 µM | 4.61 µM | > 100 µM | 0.318 µM | 3.11 µM | 1.1 µM | 5.5 µM | 4.37 µM | > 100 µM | 3.78 µM | > 100 µM
Cc1oc2c(c1C(=O)N1CC[C@@H](N)C1)C(=O)c1c(c(O)c3ccccc3c1O)C2=O | 3.38 µM | 18.9 µM | 0.224 µM | 3.48 µM | 1.41 µM | 2.96 µM | 1.86 µM | 9 µM | 2.92 µM | 11.8 µM | 0.421 µM | 2.44 µM | 2.51 µM | 12.6 µM | 2.11 µM | 15.4 µM |  |  | 1.06 µM | 15.5 µM
CCOC(=O)C1=C(C)N2C(=NC3=C(CCC/C3=C\c3ccc(Cl)cc3)C2c2ccc(Cl)cc2)S1 (centres undefined) | 1.37 µM | 3.09 µM | 1.65 µM | 3.95 µM |  |  | 3.45 µM | 11.8 µM | 2.85 µM | 19.2 µM | 1.7 µM | 3.85 µM | 1.22 µM | 4.04 µM | 9.11 µM | 51.3 µM | 3.37 µM | 46.8 µM | 3.92 µM | 17.6 µM
